Experimental data published in PMC4055595, “Pharmacokinetic Compatibility of Ginsenosides and Schisandra Lignans in Shengmai-san: From the Perspective of P-Glycoprotein” (PLoS ONE, 2014).
Read-outs that look alike come from different tables or passages of the source.

Legend:
P-gp (MDR1) = P-gp (MDR1) (Homo sapiens, UniProt P08183); assay: Transport of digoxin and ginsenosides across L-MDR1 cell monolayers (efflux ratio); assay type: in vitro ADME; details: human, read-out: Efflux ratio (Papp BL-AP / Papp AP-BL)
P-gp (MDR1), sequence (P08183 whole entry): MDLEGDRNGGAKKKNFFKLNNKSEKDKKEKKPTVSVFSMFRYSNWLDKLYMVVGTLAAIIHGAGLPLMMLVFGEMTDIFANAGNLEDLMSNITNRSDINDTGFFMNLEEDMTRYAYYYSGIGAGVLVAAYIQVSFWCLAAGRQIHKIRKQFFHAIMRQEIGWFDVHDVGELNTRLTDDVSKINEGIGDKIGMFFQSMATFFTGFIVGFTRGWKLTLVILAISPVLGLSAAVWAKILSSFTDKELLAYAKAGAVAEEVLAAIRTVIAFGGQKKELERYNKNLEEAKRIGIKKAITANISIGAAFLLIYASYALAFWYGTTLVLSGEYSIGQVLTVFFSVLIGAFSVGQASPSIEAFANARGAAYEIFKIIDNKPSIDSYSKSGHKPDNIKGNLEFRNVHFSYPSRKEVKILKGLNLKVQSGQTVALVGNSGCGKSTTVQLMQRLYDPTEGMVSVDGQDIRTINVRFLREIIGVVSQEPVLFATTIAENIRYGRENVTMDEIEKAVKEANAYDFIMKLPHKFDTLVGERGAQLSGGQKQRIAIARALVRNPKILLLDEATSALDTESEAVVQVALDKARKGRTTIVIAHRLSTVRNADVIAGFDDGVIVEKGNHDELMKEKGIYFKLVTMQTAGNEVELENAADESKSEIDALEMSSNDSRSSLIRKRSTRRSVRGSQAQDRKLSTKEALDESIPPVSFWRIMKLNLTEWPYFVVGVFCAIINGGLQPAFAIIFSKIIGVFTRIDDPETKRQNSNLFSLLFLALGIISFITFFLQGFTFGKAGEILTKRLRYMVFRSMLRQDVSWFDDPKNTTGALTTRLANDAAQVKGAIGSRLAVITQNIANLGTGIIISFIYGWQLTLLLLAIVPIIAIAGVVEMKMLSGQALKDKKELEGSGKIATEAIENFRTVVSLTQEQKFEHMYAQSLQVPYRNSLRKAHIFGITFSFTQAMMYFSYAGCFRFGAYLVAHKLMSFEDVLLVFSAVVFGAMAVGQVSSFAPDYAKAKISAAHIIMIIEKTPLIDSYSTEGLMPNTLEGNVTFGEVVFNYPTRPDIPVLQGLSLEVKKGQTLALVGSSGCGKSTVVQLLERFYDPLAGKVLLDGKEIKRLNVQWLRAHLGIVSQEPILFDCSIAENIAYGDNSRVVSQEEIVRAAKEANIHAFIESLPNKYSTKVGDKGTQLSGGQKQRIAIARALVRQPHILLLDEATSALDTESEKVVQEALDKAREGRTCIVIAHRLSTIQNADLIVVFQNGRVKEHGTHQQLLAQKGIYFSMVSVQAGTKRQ
Description: (§1) LLC-PK1 cells, a cell line lacking P-gp, and the derived cell line L-MDR1, which over-express human MDR1-encoded P-gp, were grown in minimum essential medium with supplements at 37°C, 5% CO2, and 95% humidity. LLC-PK1 and L-MDR1 cells were seeded at a density of 12×10^6 cells per 150-cm^2 flask and grown for 7 days in medium 199 supplemented with 2 mM glutamine, 10% fetal bovine serum, 10 mg/500 mL of streptomycin, and 10,000 IU/500 mL of penicillin. To ensure a constant expression level of transport protein, L-MDR1 cells were grown in the presence of 640 nM vincristine. Cells were grown as monolayer on polycarbonate membrane filters (Transwell; Costar Corporation, Cambridge, MA) as outlined previously. Transepithelial resistance was measured in each well using a Millicell ERS ohmmeter (Millipore, Bedford, MA); wells registering a resistance of 200 ohms or greater, after correcting for the resistance obtained in control blank wells, were used in the transport experiments.
(§2) The LLC-PK1 and L-MDR1 cells were washed with warm Hank's balanced salt solution HBSS (pH 7.4) twice before transport experiment. HBSS containing verapamil (10 µM), SLE (2.0 and 10.0 µg/mL) or blank HBSS (control) was then loaded into both apical and basolateral chambers. After incubation at 37°C for 1.5 h, GE (100 µg/mL) was added to either the apical or basolateral side to evaluate the transport in absorptive and secretive directions, respectively. The cell monolayer was then incubated for another 2 h. Finally, the concentrations of ginsenosides were determined by LC/MS. All experiments were conducted in triplicate.
(§3) For the transport assay, the apparent permeability (P app, cm/s) in each direction (A→B and B→A) was calculated as follows, where A is the surface area of the membrane inserts (0.0804 cm^2), C 0 is the initial concentration of the compound applied in the donor compartment (2 µM), and △Q is the amount (micromoles) of compound transported over time △t (5 h = 18,000 s): [drawing 1]
(§4) The efflux ratio (ER) was a dimensionless number calculated as the ratio of the apparent permeability in the B→A direction divided by the apparent permeability in the A→B direction. [drawing 2]

[1] = molecular target: T1, human MDR1-encoded P-gp (L-MDR1 cells) (Homo sapiens, UniProt P08183); assay: as above; assay type: in vitro ADME; details: for Effect of verapamil on efflux ratio / Papp / Effect of SLE on efflux ratio / transport: L-MDR1 cells; for Effect of verapamil on efflux ratio / Papp: 10 µM verapamil; for Effect of SLE on efflux ratio / transport: SLE 2.0 and 10.0 µg/mL; for P-gp substrate classification: summary of transport/uptake in LLC-PK1, L-MDR1 and Caco-2 cells with verapamil
T1 sequence (P08183 whole entry): as above
Description: as §1, §2, §3, §4

[2] = test system: LLC-PK1 cells (lacking P-gp); assay: Transport of digoxin and ginsenosides across LLC-PK1 cell monolayers; assay type: in vitro ADME; details: for Effect of verapamil on transport (efflux ratio): 10 µM verapamil; for Effect of SLE on transport (AP→BL, BL→AP): SLE 2.0 and 10.0 µg/mL
Description: as §1, §2, §3, §4

[3] = molecular target: T1, human MDR1-encoded P-gp (L-MDR1 cells); assay: Uptake (intracellular concentration) of digoxin and ginsenosides in L-MDR1 cells; assay type: in vitro ADME
Description: as §1
(§5) LLC-PK1 and L-MDR1 cells were incubated with SLE (2.0 and 10.0 µg/mL) or verapamil (10 µM) for 1.0 h, and then were washed to discard SLE or verapamil before adding 100 µg/mL of GE. The accumulation of GE lasted for 2 h, and the intracellular concentrations of ginsenosides were measured by LC/MS. All experiments were conducted in triplicate.

[4] = test system: LLC-PK1 cells (lacking P-gp); assay: Uptake (intracellular accumulation) of digoxin and ginsenosides in LLC-PK1 cells; assay type: in vitro ADME; details: for Effect of verapamil on intracellular accumulation: 10 µM verapamil; for Effect of SLE on intracellular accumulation: SLE 2.0 and 10.0 µg/mL
Description: as §1, §5

[5] = Rat plasma pharmacokinetics after 10-day vehicle/SLE and digoxin or GE; assay type: in vivo, Sprague-Dawley rats; details: rats; for AUC / Cmax / AUC(0-inf) / MRT inf / Tmax / half-life: female, Sprague-Dawley, rat, plasma, po; for AUC / Cmax / AUC(0-inf) / MRT inf / Tmax / half-life / Cl_F_obs / AUCINF_obs: day 11 digoxin 0.5 mg/kg or GE 120 mg/kg ig; for AUC(0-inf): read-out: AUCINF_obs; for MRT inf: read-out: MRTINF_obs; for Tmax: read-out: Tmax; for half-life: read-out: t1/2 (converted); for Increase of AUC (AUC0-∞) by 10 continuous days administration of SLE: GE ig on day 11
Description: This study was carried out in strict accordance with the recommendations in the Guide for the Care and Use of Laboratory Animals of the National Institutes of Health. The protocol was approved by the Committee on the Ethics of Animal Experiments of the China Pharmaceutical University. All surgery was performed under sodium pentobarbital anesthesia, and all efforts were made to minimize suffering. […] The rats were fed with standard laboratory food and water and fasted overnight but with free access to water before the test. To evaluate the effect of long-term treatment with SLE on the pharmacokinetics of ginsenosides, 24 rats were also divided into four groups (group I∼ group IV) with 6 animals each. […] On the 11th day, digoxin was administered intragastrically to rats (group I and group II) at a single dose of 0.5 mg/kg, GE was administered intragastrically to rats (group III and group IV) at a single dose of 120 mg/kg. […] Plasma was obtained by centrifugation at 5000 g for 10 min and stored at −20°C before analysis. The plasma / cell samples were extracted using a liquid–liquid extraction technique. To each tube containing 100 µL plasma, 10 µL internal standard (digoxin, 1.0 µg/mL) and 1.0 mL of n-butanol were added. The mixture was then vortex-extracted for 2 min, and centrifuged for 10 min at 10,000 g. […] The plasma concentration-time curves of ginsenosides in rats were obtained by plotting the mean plasma concentrations versus time. Pharmacokinetic parameters were calculated using the WinNonlin 6.3 program (Pharsight Inc., Mountain View, CA). The elimination half-life (t 1/2) value was calculated as 0.693/β, where β is the elimination rate constant calculated from the terminal linear portion of the log plasma concentration-time curve. The total areas under the plasma concentration- time curve from time 0 to the last quantifiable time point (AUC0-t) and from time 0 to infinity (AUC0-∞) were calculated using the log trapezoidal rule. [drawing 3] The maximum plasma concentrations (C max) for ginsenosides were obtained by visual inspection of the plasma concentration-time curve, whereas the initial drug concentration (the extrapolated concentration at zero time) of the drug after intravenous injection was calculated by back-extrapolation of the plasma concentration-time curve to the y-axis.

[6] = LLC-PK1, pH 7.4, L-MDR1 cells, control (absence of verapamil), GE 100 µg/mL, 2 h
[7] = LLC-PK1, pH 7.4, with verapamil 10 µM, L-MDR1 cells, presence of 10 µM verapamil
[8] = SLE 500 mg/kg ig once a day for 10 days
[9] = control: vehicle once a day for 10 days
[10] = SLE 500 mg/kg x 10 days vs vehicle

efflux ratio at 2 h, 100 µg/mL (P-gp (MDR1); [6]) | efflux ratio at 2 h, 100 µg/mL (P-gp (MDR1); [7]) | Effect of SLE on transport (AP→BL, BL→AP) [2] | Increase of intracellular concentration by SLE ([3]; 2.0 µg/mL SLE) [fold] | Increase of intracellular concentration by SLE ([3]; 10.0 µg/mL SLE) [fold] | Effect of verapamil on intracellular accumulation [4] | Effect of SLE on intracellular accumulation [4] | AUC [5, 8] [ng·h/mL] | Cmax [5, 8] [ng/mL] | AUC(0-inf) [5, 8] [ng·h/mL] | MRT inf [5, 8] [h] | Tmax [5, 8] [h] | half-life [5, 8] [h] | AUC [5, 9] [ng·h/mL] | Cmax [5, 9] [ng/mL] | AUC(0-inf) [5, 9] [ng·h/mL] | MRT inf [5, 9] [h] | half-life [5, 9] [h] | Cl_F_obs [5, 8] [L/h] | Cl_F_obs [5, 9] [L/h] | Compound | further results
26.2 | 8.23 | No transport difference | 2.7 | 3.6 | no significant difference | no significant difference | 123 ± 52.8 | 22.9 ± 13.7 | 127 ± 52.1 | 4.78 ± 0.91 | 3.28 ± 1.73 | 2.19 ± 0.87 | 68.3 ± 26 | 11.8 ± 4.22 | 76.1 ± 30 | 5.65 ± 2.85 | 2.99 ± 2.32 | 4.49 ± 1.75 | 7.48 ± 3.09 | C[C@H]1O[C@@H](O[C@H]2[C@@H](O)C[C@H](O[C@H]3[C@@H](O)C[C@H](O[C@H]4CC[C@@]5(C)[C@H](CC[C@@H]6[C@@H]5C[C@@H](O)[C@]5(C)[C@@H](C7=CC(=O)OC7)CC[C@]65O)C4)O[C@@H]3C)O[C@@H]2C)C[C@H](O)[C@@H]1O [Digoxin, digoxin, reference compound] | Effect of verapamil on efflux ratio / Papp [1]: significantly decrease of ER; Effect of SLE on efflux ratio / transport [1]: significantly decreased; Effect of verapamil on transport (efflux ratio) [2]: No transport difference; Enhancement of uptake level by verapamil ([3]; 10 µM verapamil, P<0.05): 3.2 fold; Tmax [5, 9]: 2.33 ± 1.03 h; Increase of AUC0-τ by 10 continuous days administration of SLE ([5]; SLE 500 mg/kg x 10 days vs vehicle, digoxin 0.5 mg/kg ig on day 11, P<0.05): about 2 fold
> 3.5 | 1.57 | No transport difference | 2.9 | 5.1 | no significant difference | no significant difference | 25600 ± 1300 | 736 ± 143 | 27000 ± 2380 | 33.5 ± 7.91 | 9.6 ± 2.19 | 19.3 ± 8.29 | 14100 ± 5070 | 430 ± 135 | 14300 ± 5180 | 28.1 ± 4.81 | 17.2 ± 2.16 | 0.0037 ± 0.0003 | 0.0079 ± 0.0035 | CC(C)=CCC[C@](C)(O[C@@H]1O[C@H](CO[C@@H]2O[C@H](CO)[C@@H](O)[C@H](O)[C@H]2O)[C@@H](O)[C@H](O)[C@H]1O)[C@H]1CC[C@]2(C)[C@@H]1[C@H](O)C[C@@H]1[C@@]3(C)CC[C@H](O[C@@H]4O[C@H](CO)[C@@H](O)[C@H](O)[C@H]4O[C@@H]4O[C@H](CO)[C@@H](O)[C@H](O)[C@H]4O)C(C)(C)[C@@H]3CC[C@]12C [Rb1, ginsenoside Rb1] | Effect of verapamil on efflux ratio / Papp [1]: significantly decrease of ER; Effect of SLE on efflux ratio / transport [1]: significantly decreased; P-gp substrate classification [1]: moderate P-gp substrates; Effect of verapamil on transport (efflux ratio) [2]: No transport difference; Tmax [5, 9]: 10 ± 4.47 h; AUCINF_obs [5, 8]: 27017 ± 2381 ng·h/mL; Increase of AUC (AUC0-∞) by 10 continuous days administration of SLE [5, 10]: 1.82 fold; AUCINF_obs [5, 9]: 14324 ± 5178 ng·h/mL
– | – | No transport difference | 2.0 | 3.7 | no significant difference | no significant difference | 21300 ± 6520 | 586 ± 95.2 | 16600 ± 3510 | 26.5 ± 6.58 | 10 ± 2.83 | 24.3 ± 8.42 | 15900 ± 3310 | 512 ± 77.8 | 22600 ± 6120 | 29.5 ± 2.61 | 20.1 ± 3.66 | 0.0047 ± 0.0011 | 0.0062 ± 0.0013 | CC(C)=CCC[C@](C)(O[C@@H]1O[C@H](CO[C@@H]2OC[C@H](O)[C@H](O)[C@H]2O)[C@@H](O)[C@H](O)[C@H]1O)[C@H]1CC[C@]2(C)[C@@H]1[C@H](O)C[C@@H]1[C@@]3(C)CC[C@H](O[C@@H]4O[C@H](CO)[C@@H](O)[C@H](O)[C@H]4O[C@@H]4O[C@H](CO)[C@@H](O)[C@H](O)[C@H]4O)C(C)(C)[C@@H]3CC[C@]12C [Rb2, ginsenoside Rb2] | P-gp substrate classification [1]: moderate P-gp substrates; AUCINF_obs [5, 8]: 22557 ± 6121 ng·h/mL; Increase of AUC (AUC0-∞) by 10 continuous days administration of SLE [5, 10]: 1.33 fold; AUCINF_obs [5, 9]: 16600 ± 3511 ng·h/mL
